Assay results taken from the NIST ThermoML archive (doi:10.1021/je1006482).

Tests used:
[1] = 101.33 kPa, Liquid
[2] = excess molar enthalpy (molar enthalpy of mixing); xn = mol fraction of the nth substance listed; conditions: 101.3 kPa, Liquid, Flow calorimetry

COC(=O)CC(C)=O [methyl 3-oxobutanoate]
[1]
Conditions	mass density [kg/m3]
288.2 K	1081.93
298.2 K	1071.18
313.2 K	1055.01
328.2 K	1038.78
338.2 K	1027.89
348.2 K	1016.95

COC(=O)CC(C)=O [methyl 3-oxobutanoate] + CC(C)O
excess molar enthalpy [kcal/mol], [2]
Conditions	288.2 K	298.2 K	313.2 K	328.2 K
x1 = 0.1002	0.228	0.251	0.272	0.285
x1 = 0.2005	0.349	0.394	0.443	0.469
x1 = 0.2998	0.422	0.48	0.542	0.576
x1 = 0.35	0.448	0.504	0.569	0.605
x1 = 0.4004	0.461	0.525	0.59	0.633
x1 = 0.4493	0.473	0.536	0.601	0.639
x1 = 0.4998	0.476	0.536	0.598	0.634
x1 = 0.5504	0.473	0.531	0.589	0.62
x1 = 0.6008	0.462	0.518	0.565	0.593
x1 = 0.6492	0.444	0.494	0.536	0.558
x1 = 0.6991	0.418	0.461	0.493	0.51
x1 = 0.7997	0.336	0.361	0.374	0.382
x1 = 0.9002	0.194	0.206	0.205	0.211

COC(=O)CC(C)=O [methyl 3-oxobutanoate] + CCCO
excess molar enthalpy [kcal/mol], [2]
Conditions	288.2 K	298.2 K	313.2 K	328.2 K
x1 = 0.0994	0.197	0.219	0.244	0.262
x1 = 0.1995	0.311	0.351	0.4	0.433
x1 = 0.2993	0.38	0.43	0.495	0.538
x1 = 0.3492	0.403	0.458	0.527	0.568
x1 = 0.3995	0.42	0.477	0.549	0.59
x1 = 0.45	0.432	0.486	0.56	0.599
x1 = 0.5008	0.435	0.491	0.561	0.601
x1 = 0.5498	0.434	0.487	0.553	0.587
x1 = 0.6007	0.425	0.476	0.534	0.564
x1 = 0.6495	0.41	0.457	0.507	0.533
x1 = 0.7	0.387	0.427	0.471	0.488
x1 = 0.8001	0.314	0.337	0.361	0.37
x1 = 0.9003	0.186	0.192	0.203	0.206

COC(=O)CC(C)=O [methyl 3-oxobutanoate] + CCO
excess molar enthalpy [kcal/mol], [2]
Conditions	288.2 K	298.2 K	313.2 K	328.2 K
x1 = 0.1003	0.175	0.188	0.21	0.228
x1 = 0.2002	0.278	0.303	0.343	0.37
x1 = 0.2995	0.34	0.377	0.424	0.451
x1 = 0.3494	0.361	0.399	0.453	0.479
x1 = 0.3995	0.375	0.416	0.47	0.501
x1 = 0.4495	0.384	0.426	0.48	0.509
x1 = 0.5008	0.387	0.428	0.481	0.51
x1 = 0.5497	0.384	0.424	0.476	0.502
x1 = 0.5995	0.375	0.414	0.461	0.483
x1 = 0.65	0.36	0.395	0.44	0.457
x1 = 0.7011	0.337	0.366	0.405	0.419
x1 = 0.7996	0.269	0.288	0.313	0.319
x1 = 0.9006	0.155	0.164	0.173	0.174

COC(=O)CC(C)=O [methyl 3-oxobutanoate] + CO
excess molar enthalpy [kcal/mol], [2]
Conditions	288.2 K	298.2 K	313.2 K	328.2 K
x1 = 0.1004	0.127	0.136	0.148	0.159
x1 = 0.2001	0.209	0.222	0.246	0.261
x1 = 0.3	0.262	0.279	0.306	0.329
x1 = 0.3506	0.28	0.298	0.328	0.35
x1 = 0.4003	0.293	0.309	0.34	0.364
x1 = 0.4497	0.298	0.315	0.347	0.37
x1 = 0.5001	0.301	0.319	0.348	0.37
x1 = 0.551	0.298	0.314	0.345	0.366
x1 = 0.5993	0.289	0.307	0.335	0.353
x1 = 0.6492	0.277	0.29	0.316	0.332
x1 = 0.7004	0.257	0.272	0.292	0.306
x1 = 0.7993	0.202	0.21	0.222	0.233
x1 = 0.8988	0.118	0.117	0.125	0.129
